Test results reported in patent US4705784A, “Cephem compounds” (Sumitomo Pharmaceuticals Company, Limited, priority 1983, dated 1987).
≈ marks a conversion by molar mass, not a printed value.

Assays:
[1] = tested on: Staphylococcus epidermidis; assay: Antimicrobial activity test, Staphylococcus epidermidis; format: cell-based
Escherichia coli = assay: Antimicrobial activity test, Escherichia coli; format: cell-based
Proteus mirabilis = assay: Antimicrobial activity test, Proteus mirabilis; format: cell-based
Serratia marcescens = assay: Antimicrobial activity test, Serratia marcescens; format: cell-based
Enterobacter aerogenes = assay: Antimicrobial activity test, Enterobacter aerogenes; format: cell-based; conditions: Klebsiella aerogenes
[2] = Oral dosage absorbability: urinary excretion rate after oral administration, mouse; format: in vivo; conditions: urine, dose: 50 mg/kg
Protocol: (§1) Results of oral dosage absorbability tests
(§2) Urinary excretion rate after oral
(§3) Test compd. administration (dose: 50 mg/kg)

[3] = Oral dosage absorbability: urinary excretion rate after oral administration, rat; format: in vivo; conditions: urine, dose: 50 mg/kg
Protocol: as §1, §2, §3

[4] = tested on: β-lactamase producing resistant bacteria; conditions: cephem antibiotics in use for oral administration; cited from earlier work
bacteria = conditions: cephem antibiotics in use for oral administration; cited from earlier work

SMILES | MIC [1] [µg/mL] | MIC (Escherichia coli) [µg/mL] | MIC (Proteus mirabilis) [µg/mL] | MIC (Serratia marcescens) [µg/mL] | MIC (Enterobacter aerogenes) [µg/mL] | dose excreted [2] [%] | dose excreted [3] [%] | effect on β-lactamase producing resistant bacteria [4] | antimicrobial activity and width of antimicrobial spectrum (bacteria)
CO/N=C(\C(=O)NC1C(=O)N2C(C(=O)OCOC(=O)C(C)(C)C)=C(COC(N)=O)CS[C@H]12)c1cscn1 (some centres unmarked) [Example 5, Pivaloyloxymethyl 7-[(Z)-2-methoxyimino-2-(thiazol-4-yl)acetamido]-3-carbamoyloxymethyl-3-cephem-4-carboxylate] | – | – | – | – | – | 64 | 30 | – | –
CCO/N=C(\C(=O)NC1C(=O)N2C(C(=O)O)=C(COC(N)=O)CSC12)c1cscn1 (centres unmarked) [Example 10] | 3.13 (≈ 6.87 µM) | 0.2 (≈ 0.439 µM) | 0.05 (≈ 0.11 µM) | 3.13 (≈ 6.87 µM) | 0.78 (≈ 1.71 µM) | – | – | – | –
N[C@@H](C(=O)N[C@@H]1C(=O)N2C(C(=O)O)=C(Cl)CS[C@H]12)c1ccccc1 [cefaclor] | – | – | – | – | – | – | – | ineffective | slightly inferior
N[C@@H](C(=O)N[C@@H]1C(=O)N2C(C(=O)O)=C(CSc3c[nH]nn3)CS[C@H]12)c1ccc(O)cc1 [cefatrizine] | – | – | – | – | – | – | – | ineffective | slightly inferior
CC1=C(C(=O)O)N2C(=O)[C@@H](NC(=O)[C@H](N)c3ccccc3)[C@H]2SC1 [cephalexin] | – | – | – | – | – | – | – | ineffective | slightly inferior

More lines, main results first:

MIC [1] [µg/mL] | MIC (Escherichia coli) [µg/mL] | MIC (Proteus mirabilis) [µg/mL] | MIC (Serratia marcescens) [µg/mL] | MIC (Enterobacter aerogenes) [µg/mL] | dose excreted [2] [%] | dose excreted [3] [%] | SMILES | effect on β-lactamase producing resistant bacteria [4] | antimicrobial activity and width of antimicrobial spectrum (bacteria)
1.56 (≈ 3.53 µM) | 0.05 (≈ 0.113 µM) | ≤ 0.013 | 1.56 (≈ 3.53 µM) | 0.39 (≈ 0.883 µM) | – | – | CO/N=C(\C(=O)NC1C(=O)N2C(C(=O)O)=C(COC(N)=O)CS[C@H]12)c1cscn1 (some centres unmarked) [Example 1, 7-[(Z)-2-Methoxyimino-2-(thiazol-4-yl)acetamido]-3-carbamoyloxymethyl-3-cephem-4-carboxylic acid] | – | –
1.56 (≈ 3.65 µM) | 0.39 (≈ 0.912 µM) | 0.78 (≈ 1.82 µM) | 3.13 (≈ 7.32 µM) | 1.56 (≈ 3.65 µM) | – | – | NC(=O)OCC1=C(C(=O)O)N2C(=O)C(NC(=O)/C(=N\O)c3cscn3)[C@H]2SC1 (some centres unmarked) [Example 16, 7-[(Z)-2-hydroxyimino-2-(thiazol-4-yl)acetamido]-3-carbamoyloxymethyl-3-cephem-4-carboxylic acid] | – | –
